Legend:
Format in all cases: in vivo
Beckmannia = assay: Field test, postemergence herbicidal activity on Beckmannia in sulfonylurea-resistant rape
Text: (§1) A synergistic effect exists when the effect of the composition exceeds the sum of the effects of the compounds applied separately. The expected effect for a specific combination of two active compounds can be calculated using a so-called “Colby formula” (see S. R. Colby, “Calculating Synergistic and Antagonistic Responses of Herbicide Combinations”, Weeds 1967,15, 20-22) as follows: if
(§2) If the actually observed activity (O) is greater than the expected activity (E), then the composition is superadditive, i.e., synergism is present.
(§3) Sulfonylurea herbicides-resistant non-genetically modified rape crops were planted with typical weeds under natural outdoors conditions. When the rape plants grew, the weed populations naturally occurred. The weeds were treated during postemergence at 2-4 leaf stage. To reflect the synergistic effect, they were treated with a lower dosage than the common dosage.

Setaria = assay: Field test, postemergence herbicidal activity on Setaria in sulfonylurea-resistant rape; details: four weeks after the treatment; for pest or weed control at 1 g/ha: Setaria, post-emergence, 672 h, read-out: Injury of Setaria % Experimental value
Text: (§4) A synergistic effect exists when the effect of the composition exceeds the sum of the effects of the compounds applied separately.
as §2
(§5) Sulfonylurea herbicides-resistant non-genetically modified rape crops were planted with typical weeds under natural outdoors conditions. When the rape plants grew, the weed populations naturally occurred. The weeds were treated during postemergence at 2-4 leaf stage.

Datura = assay: Field test, postemergence herbicidal activity against Datura in sulfonylurea-resistant rape; details: four weeks after the treatment; for pest or weed control at 5 g/ha: Datura, post-emergence, 672 h, read-out: Injury of Datura % Experimental value
Text: as §4, §2, §5

Alopecurus = assay: Field test, postemergence herbicidal activity on Alopecurus in sulfonylurea-resistant rape; details: four weeks after the treatment; for pest or weed control at 10 g/ha: Alopecurus, post-emergence, 672 h, read-out: Injury of Alopecurus % Experimental value
Text: as §4, §2, §5

Chenopodium = assay: Field test, postemergence herbicidal activity on Chenopodium in sulfonylurea-resistant rape
Text: as §1, §2, §3

Stellaria = assay: Field test, postemergence herbicidal activity on Stellaria in sulfonylurea-resistant rape; details: 10 gram ai/ha, four weeks after the treatment; for pest or weed control at 10 g/ha: Stellaria, post-emergence, 672 h, read-out: Injury of Stellaria % Experimental value
Text: as §4, §2, §5

Galium = assay: Field test, postemergence herbicidal activity on Galium in sulfonylurea-resistant rape; details: four weeks after the treatment; for pest or weed control at 0.1 g/ha: Galium, post-emergence, 672 h, read-out: Injury of Galium % Experimental value
Text: as §4, §2, §5

[1] = post-emergence, 672 h, sulfonylurea alone, 10 gram ai/ha, four weeks after the treatment, read-out: Injury of Beckmannia % Experimental value
[2] = sulfonylurea alone, 1 gram ai/ha
[3] = sulfonylurea alone, 5 gram ai/ha
[4] = sulfonylurea alone, 10 gram ai/ha
[5] = Chenopodium, post-emergence, 672 h, sulfonylurea alone, 10 gram ai/ha, four weeks after the treatment, read-out: Injury of Chenopodium % Experimental value
[6] = sulfonylurea alone, 0.1 gram ai/ha
[7] = sulfonylurea alone, 10 gram ai/ha, four weeks after the treatment

Molecule	pest or weed control at 10 g/ha (Beckmannia; [1]) [%]	pest or weed control at 1 g/ha (Setaria; [2]) [%]	pest or weed control at 5 g/ha (Datura; [3]) [%]	pest or weed control at 10 g/ha (Alopecurus; [4]) [%]	pest or weed control at 10 g/ha (Chenopodium; [5]) [%]	pest or weed control at 10 g/ha (Stellaria; sulfonylurea alone) [%]	pest or weed control at 0.1 g/ha (Galium; [6]) [%]	further results
COC(=O)c1sccc1S(=O)(=O)NC(=O)Nc1nc(C)nc(OC)n1 [thifensulfuron-methyl, 3-(4-methoxy-6-methyl-1,3,5-triazin-2-yl)-1-(2-methoxyformylthiophen-3-yl)-sulfonylurea]	0	0	22	0	8.1	57	8	
COc1cc(OC)nc(NC(=O)NS(=O)(=O)Nc2ccccc2C(=O)C2CC2)n1 [cyclosulfamuron]	0	0	26	0	4.1	48	9	
COC(=O)c1ccccc1S(=O)(=O)NC(=O)Nc1nc(C)nc(OC)n1 [metsulfuron-methyl, methyl 2-[(4-methoxy-6-methyl-1,3,5-triazin-2-yl)ureidosulfonyl]benzoate]	24.8	0	27	82	88.4	58	11	
(±)-2-[(E)-3-chloroallyloxyimino]propyl-5-[2-(ethylthio) propyl]-3-hydroxycyclohexen-2-one [clethodim]								Injury of Setaria % Experimental value (Setaria; clethodim alone, 50 gram ai/ha): 57.4%; Injury of Datura % Experimental value (Datura; clethodim alone, 50 gram ai/ha): 0%; Injury of Alopecurus % Experimental value (Alopecurus; clethodim alone, 1 gram ai/ha): 5%; Injury of Stellaria % Experimental value (Stellaria; clethodim alone): 0%; Injury of Galium % Experimental value (Galium; clethodim alone, 10 gram ai/ha): 0%
COC(=O)c1ccccc1CS(=O)(=O)NC(=O)Nc1nc(OC)cc(OC)n1 [bensulfuron-methyl, methyl 2-[((4,6-dimethoxypyrimidin-2-yl)aminocarbonylamino]sulfonylmethyl)benzoate]	0	0	32	0	12.2	64	16	
COc1cc(OC)nc(NC(=O)NS(=O)(=O)c2ncccc2C(=O)N(C)C)n1 [nicosulfuron, 2-(4,6-dimethoxypyrimidin-2-ylcarbamoylsulfamoyl)-N,N-dimethylnicotinamide]	50.3	2	11	5	4	60	1	
COc1cc(OC)nc(NC(=O)NS(=O)(=O)N(C)S(C)(=O)=O)n1 [amidosulfuron, 1-(4,6-dimethoxypyrimidin-2-yl)-3-mesyl(methyl)sulfamoylurea]	0	0	27	0	35.8	35	5	
COc1nc(C)nc(NC(=O)NS(=O)(=O)c2ccccc2Cl)n1 [chlorsulfuron]	36.2	0	34	54	53.6	55	10	
COc1nc(C)nc(NC(=O)NS(=O)(=O)c2ccccc2OCCCl)n1 [triasulfuron, 1-[2-(2-chloroethoxyl)phenylsulfonyl]-3-(4-methoxy-6-methyl-1,3,5-triazin-2-yl)urea]	0	0	28	0	22.5	40	13	
Cc1ccnc(NC(=O)NS(=O)(=O)c2ccccc2[N+](=O)[O-])n1 [monosulfuron]								Injury of Beckmannia % Experimental value (Beckmannia; [7]): 7%; Injury of Setaria % Experimental value (Setaria; [2]): 0%; Injury of Datura % Experimental value (Datura; [3]): 24%; Injury of Alopecurus % Experimental value (Alopecurus; [4]): 5%; Injury of Chenopodium % Experimental value (Chenopodium; [7]): 23.5%; Injury of Stellaria % Experimental value (Stellaria; sulfonylurea alone): 34%; Injury of Galium % Experimental value (Galium; [6]): 7%
CCC/C(=N\OCC)C1=C(O)CC(CC(C)SCC)CC1=O (racemic) [sethoxydim, (±)-2-[1-(ethoxyimino)butyl]-5-[2-(ethylthio)propyl]-3-hydroxy-2-cyclo hexen-1-one]								pest or weed control at 0.2 g/ha (Beckmannia; post-emergence, 672 h, read-out: Injury of Beckmannia % Experimental value): 0%; pest or weed control at 0.1 g/ha (Chenopodium; Chenopodium, post-emergence, 672 h, read-out: Injury of Chenopodium % Experimental value): 0%

From patent publication US20150126369A1, “SYNERGISTIC HERBICIDAL COMPOSITION” (ROTAM AGROCHEM INTERNATIONAL COMPANY LIMITED, priority 2013, published 2015)
